# Target: Coagulation factor X (Homo sapiens, UniProt P00742)
# Assay: In vitro inhibitory activity against Coagulation factor X was determined
# Conditions: not given
# Chain of Coagulation factor X (P00742 41-179 limits assumed): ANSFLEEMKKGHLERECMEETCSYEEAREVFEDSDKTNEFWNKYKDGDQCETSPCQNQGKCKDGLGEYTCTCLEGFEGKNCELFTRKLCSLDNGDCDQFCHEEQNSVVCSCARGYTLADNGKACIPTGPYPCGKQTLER
# Chain of Coagulation factor X (P00742 235-488 limits assumed): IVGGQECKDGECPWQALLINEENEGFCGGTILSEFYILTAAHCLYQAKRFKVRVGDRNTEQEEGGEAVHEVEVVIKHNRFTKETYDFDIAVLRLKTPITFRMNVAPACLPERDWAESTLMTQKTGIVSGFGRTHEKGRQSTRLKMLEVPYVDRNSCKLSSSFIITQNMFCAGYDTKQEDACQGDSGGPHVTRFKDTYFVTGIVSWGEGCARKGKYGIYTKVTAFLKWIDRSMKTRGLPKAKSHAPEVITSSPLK
row,SMILES,IC50
1,CN1CCN=C1c1ccc(C(=O)N2CCN(S(=O)(=O)c3cc4ccc(Cl)cc4s3)CC2CC(=O)N2CCC(C(=O)O)CC2)cc1 (stereo not given),8 nM
2,N=C(c1ccc(CN2CCN(S(=O)(=O)c3cc4cc(Cl)ccc4[nH]3)CC2=O)cc1)N1CCCC1,240 nM
3,CN1CCN=C1c1ccc(C(=O)N2CCN(S(=O)(=O)c3cc4ccc(Cl)cc4s3)CC2CC(=O)N2CCN(c3ccncc3)CC2)cc1 (stereo not given),8 nM
4,N=C(c1ccc(CN2CCN(S(=O)(=O)c3cc4cc(Cl)ccc4[nH]3)CC2=O)cc1)N1CCCCC1,150 nM
5,N=C(c1ccc(C(=O)N2CCN(S(=O)(=O)c3cc4ccc(Cl)cc4s3)CC2)cc1)N1CCC1,25 nM
6,CN1CCN=C1c1ccc(CN2CCN(S(=O)(=O)c3cc4ccc(Cl)cc4s3)CC2=O)cc1,45 nM
7,N=C(c1ccc(C(=O)N2CCN(S(=O)(=O)c3cc4ccc(Cl)cc4s3)CC2)cc1)N1CCCCC1,71 nM
8,N=C(c1ccc(CN2CCN(S(=O)(=O)c3cc4ccc(Cl)cc4s3)CC2=O)cc1)N1CCCC1,140 nM
9,COC(=O)CC1CN(S(=O)(=O)c2cc3ccc(Cl)cc3s2)CCN1C(=O)c1ccc(C2=NCCN2C)cc1 (stereo not given),13 nM
10,CN1CCN=C1c1ccc(C(=O)N2CCN(S(=O)(=O)c3cc4cc(Cl)ccc4[nH]3)CC2CC(=O)N2CCC2)cc1 (stereo not given),5 nM
11,COC(=O)C1CN(S(=O)(=O)c2cc3cc(Cl)ccc3[nH]2)CCN1C(=O)c1ccc(C2=NCCN2C)cc1 (stereo not given),27 nM
12,CCN(C)C(=N)c1ccc(C(=O)N2CCN(S(=O)(=O)c3cc4cc(Cl)ccc4[nH]3)CC2)cc1,27 nM
13,N=C(c1ccc(C(=O)N2CCN(S(=O)(=O)c3ccc4cc(Br)ccc4c3)CC2)cc1)N1CCCCC1,160 nM
14,CN1CCN=C1c1ccc(C(=O)N2CCN(S(=O)(=O)c3cc4ccc(Cl)cc4s3)CC2CC(=O)N2CCCC2)cc1 (stereo not given),6 nM
15,N=C(c1ccc(CN2CCN(S(=O)(=O)c3cc4ccc(Cl)cc4s3)CC2=O)cc1)N1CCCCC1,100 nM
16,O=C(c1ccc(C2=NCCCN2)cc1)N1CCN(S(=O)(=O)c2ccc3cc(Br)ccc3c2)CC1,1300 nM
17,CCN(C)C(=N)c1ccc(C(=O)N2CCN(S(=O)(=O)c3cc4ccc(Cl)cc4s3)CC2)cc1,90 nM
18,CN1CCN=C1c1ccc(C(=O)N2CCN(S(=O)(=O)c3cc4ccc(Cl)cc4s3)CC2CC(=O)N2CCCCC2)cc1 (stereo not given),6 nM
19,CN1CCN=C1c1ccc(C(=O)N2CCN(S(=O)(=O)c3cc4cc(Cl)ccc4s3)CC2)cc1,270 nM
20,CN1CCN=C1c1ccc(CN2CCN(S(=O)(=O)c3cc4cc(Cl)ccc4[nH]3)CC2=O)cc1,57 nM
21,N=C(c1ccc(C(=O)N2CCN(S(=O)(=O)c3cc4ccc(Cl)cc4s3)CC2)cc1)N1CCCC1,70 nM
22,CN(C)C(=O)CC1CN(S(=O)(=O)c2cc3ccc(Cl)cc3s2)CCN1C(=O)c1ccc(C2=NCCN2C)cc1 (stereo not given),7 nM
23,CCN1CCN=C1c1ccc(C(=O)N2CCN(S(=O)(=O)c3ccc4cc(Br)ccc4c3)CC2)cc1,67 nM
24,CCN1CCN=C1c1ccc(C(=O)N2CCN(S(=O)(=O)c3cc4cc(Cl)ccc4[nH]3)CC2)cc1,12 nM
25,CN(C)C(=O)CC1CN(S(=O)(=O)c2cc3cc(Cl)ccc3[nH]2)CCN1C(=O)c1ccc(C2=NCCN2C)cc1 (stereo not given),10 nM
26,CN(C)C(=N)c1ccc(C(=O)N2CCN(S(=O)(=O)c3ccc4cc(Br)ccc4c3)CC2)cc1,230 nM
27,CN1CCN=C1c1ccc(C(=O)N2CCN(S(=O)(=O)c3cc4ccc(Cl)cc4s3)CC2)cc1,9 nM
28,CN1CCN=C1c1ccc(C(=O)N2CCN(S(=O)(=O)c3cc4cc(Cl)ccc4[nH]3)CC2CC(=O)N2CCOCC2)cc1 (stereo not given),11 nM

# Continued, values first:
row,IC50,SMILES
1,8 nM,CN1CCN=C1c1ccc(C(=O)N2CCN(S(=O)(=O)c3cc4cc(Cl)ccc4[nH]3)CC2CC(=O)N2CCN(c3ccncc3)CC2)cc1 (stereo not given)
2,11 nM,CNC(=O)CC1CN(S(=O)(=O)c2cc3cc(Cl)ccc3[nH]2)CCN1C(=O)c1ccc(C2=NCCN2C)cc1 (stereo not given)
3,7 nM,CN1CCN=C1c1ccc(C(=O)N2CCN(S(=O)(=O)c3cc4cc(Cl)ccc4[nH]3)CC2CC(=O)N2CCCCC2)cc1 (stereo not given)
4,8 nM,COC(=O)C1CCN(C(=O)CC2CN(S(=O)(=O)c3cc4ccc(Cl)cc4s3)CCN2C(=O)c2ccc(C3=NCCN3C)cc2)CC1 (stereo not given)
5,18 nM,CN1CCN=C1c1ccc(C(=O)N2CCN(S(=O)(=O)c3cc4cc(Cl)ccc4[nH]3)CC2CC(N)=O)cc1 (stereo not given)
6,640 nM,N=C(c1ccc(C(=O)N2CCN(S(=O)(=O)c3ccc4cc(Br)ccc4c3)CC2)cc1)N1CCOCC1
7,10 nM,CN1CCN=C1c1ccc(C(=O)N2CCN(S(=O)(=O)c3cc4ccc(Cl)cc4s3)CC2CC(=O)N2CCC2)cc1 (stereo not given)
8,15 nM,CN1CCN=C1c1ccc(C(=O)N2CCN(S(=O)(=O)c3cc4ccc(Cl)cc4s3)CC2CC(=O)N2CCOCC2)cc1 (stereo not given)
9,8 nM,N=C(c1ccc(CN2CCN(S(=O)(=O)c3cc4cc(Cl)ccc4[nH]3)CC2=O)cc1)N1CCC1
10,41 nM,CN1CCN=C1c1ccc(C(=O)N2CCN(S(=O)(=O)c3cc4cc(Cl)ccc4[nH]3)CC2CC(=O)O)cc1 (stereo not given)
11,590 nM,CN1CCN=C1c1ccc(C(=O)N2CCN(S(=O)(=O)c3cc4ccc(Cl)cc4[nH]3)CC2)cc1
12,14 nM,C#CCN(C)C(=O)CC1CN(S(=O)(=O)c2cc3cc(Cl)ccc3[nH]2)CCN1C(=O)c1ccc(C2=NCCN2C)cc1 (stereo not given)
13,27 nM,CN(C)C(=N)c1ccc(C(=O)N2CCN(S(=O)(=O)c3cc4ccc(Cl)cc4s3)CC2)cc1
14,230 nM,CNC(=N)c1ccc(C(=O)N2CCN(S(=O)(=O)c3ccc4cc(Br)ccc4c3)CC2)cc1
15,24 nM,N=C(c1ccc(C(=O)N2CCN(S(=O)(=O)c3cc4cc(Cl)ccc4[nH]3)CC2)cc1)N1CCC1
16,36 nM,CCN1CCN=C1c1ccc(C(=O)N2CCN(S(=O)(=O)c3cc4ccc(Cl)cc4s3)CC2)cc1
17,31 nM,CN1CCN=C1c1ccc(C(=O)N2CCN(S(=O)(=O)c3ccc4cc(Br)ccc4c3)CC2)cc1

row,IC50,SMILES
1,430 nM,CN1CCCN=C1c1ccc(C(=O)N2CCN(S(=O)(=O)c3ccc4cc(Br)ccc4c3)CC2)cc1
2,64 nM,N=C(N)c1ccc(C(=O)N2CCN(S(=O)(=O)c3ccc4cc(Br)ccc4c3)CC2)cc1
3,120 nM,N=C(c1ccc(C(=O)N2CCN(S(=O)(=O)c3cc4cc(Cl)ccc4[nH]3)CC2)cc1)N1CCCCC1
4,> 11000 nM,CN1CCN=C1c1ccc(C(=O)N2CCN(C(=O)c3cc4cc(Cl)ccc4[nH]3)CC2)cc1
5,530 nM,O=C(c1ccc(C2=NCCN2)cc1)N1CCN(S(=O)(=O)c2ccc3cc(Br)ccc3c2)CC1
6,19 nM,C#CCN(C)C(=O)CC1CN(S(=O)(=O)c2cc3ccc(Cl)cc3s2)CCN1C(=O)c1ccc(C2=NCCN2C)cc1 (stereo not given)
7,11 nM,N=C(c1ccc(CN2CCN(S(=O)(=O)c3cc4ccc(Cl)cc4s3)CC2=O)cc1)N1CCC1
8,3 nM,COC(=O)CC1CN(S(=O)(=O)c2cc3cc(Cl)ccc3[nH]2)CCN1C(=O)c1ccc(C2=NCCN2C)cc1 (stereo not given)
9,30 nM,CN(C)C(=N)c1ccc(CN2CCN(S(=O)(=O)c3cc4ccc(Cl)cc4s3)CC2=O)cc1
10,29 nM,CN1CCN=C1c1ccc(C(=O)N2CCN(S(=O)(=O)c3cc4ccc(Cl)cc4s3)CC2CC(=O)O)cc1 (stereo not given)
11,37 nM,CN(C)C(=N)c1ccc(CN2CCN(S(=O)(=O)c3cc4cc(Cl)ccc4[nH]3)CC2=O)cc1
12,84 nM,N=C(c1ccc(C(=O)N2CCN(S(=O)(=O)c3cc4cc(Cl)ccc4[nH]3)CC2)cc1)N1CCCC1
13,12 nM,CN1CCN=C1c1ccc(C(=O)N2CCN(S(=O)(=O)c3cc4cc(Cl)ccc4[nH]3)CC2C(=O)O)cc1 (stereo not given)
14,7 nM,CN1CCN=C1c1ccc(C(=O)N2CCN(S(=O)(=O)c3cc4cc(Cl)ccc4[nH]3)CC2CC(=O)N2CCCC2)cc1 (stereo not given)
15,390 nM,N=C(c1ccc(C(=O)N2CCN(S(=O)(=O)c3ccc4cc(Br)ccc4c3)CC2)cc1)N1CCCC1
16,20 nM,CN(C)C(=N)c1ccc(C(=O)N2CCN(S(=O)(=O)c3cc4cc(Cl)ccc4[nH]3)CC2)cc1

# Test system: not listed separately
# Assay: Half life in rats
# Assay type: ADME, organism-based
# Conditions: rat, in vivo
row,half-life,SMILES
1,7.8 h,CN1CCN=C1c1ccc(C(=O)N2CCN(S(=O)(=O)c3cc4cc(Cl)ccc4[nH]3)CC2)cc1

# Test system: not listed separately
# Assay: Volume of distribution in rats
# Assay type: ADME, organism-based
# Conditions: rat, in vivo
row,Vd,SMILES
1,28.9 L/kg,CN1CCN=C1c1ccc(C(=O)N2CCN(S(=O)(=O)c3cc4cc(Cl)ccc4[nH]3)CC2)cc1

# Target: Prothrombin (Homo sapiens, UniProt P00734)
# Conditions: not given
row,IC50,SMILES
1,3.2 nM,CN1CCN=C1c1ccc(C(=O)N2CCN(S(=O)(=O)c3cc4ccc(Cl)cc4s3)CC2CC(=O)N2CCOCC2)cc1 (stereo not given)
2,> 10 nM,CN1CCN=C1c1ccc(C(=O)N2CCN(S(=O)(=O)c3cc4ccc(Cl)cc4s3)CC2)cc1

# Test system: not listed separately
# Assay: Oral bioavailability in rat
# Assay type: ADME, organism-based
# Conditions: in vivo
row,bioavailability,SMILES
1,< 1%,CN(C)C(=N)c1ccc(CN2CCN(S(=O)(=O)c3cc4ccc(Cl)cc4s3)CC2=O)cc1
2,4.1%,CN(C)C(=N)c1ccc(CN2CCN(S(=O)(=O)c3cc4cc(Cl)ccc4[nH]3)CC2=O)cc1
3,1.4%,CN1CCN=C1c1ccc(C(=O)N2CCN(S(=O)(=O)c3cc4cc(Cl)ccc4[nH]3)CC2)cc1

# Test system: not listed separately
# Assay: Plasma clearance in rats
# Assay type: ADME, organism-based
# Conditions: rat
row,clearance,SMILES
1,42.9 mL/min/kg,CN1CCN=C1c1ccc(C(=O)N2CCN(S(=O)(=O)c3cc4cc(Cl)ccc4[nH]3)CC2)cc1

# Target: Kallikrein-1 (Homo sapiens, UniProt P06870)
# Assay: In vitro inhibitory activity against kallikrein was determined
# Conditions: not given
# Chain of Kallikrein-1 (P06870 whole entry): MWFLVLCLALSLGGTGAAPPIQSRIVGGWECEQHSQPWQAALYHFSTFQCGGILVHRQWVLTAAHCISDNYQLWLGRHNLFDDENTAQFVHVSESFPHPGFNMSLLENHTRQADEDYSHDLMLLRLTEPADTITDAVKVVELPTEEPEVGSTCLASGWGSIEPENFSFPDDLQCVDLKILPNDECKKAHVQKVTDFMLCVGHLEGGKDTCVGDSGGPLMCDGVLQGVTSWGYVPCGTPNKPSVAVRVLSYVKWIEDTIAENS
row,IC50,SMILES
1,5800 nM,CN1CCN=C1c1ccc(C(=O)N2CCN(S(=O)(=O)c3cc4cc(Cl)ccc4[nH]3)CC2)cc1
